Laboratory results published in ChEMBL document CHEMBL3044631, “Synthesis of 2-[4,5-dimethyl-1-(phenylamino)-1H-imidazol-2-ylthio]-N-(thiazole-2-yl)acetamide derivatives and their anticancer activities” (2013).

Key:
Format in all cases: functional
HOP-62 = experiment: Anticancer activity against Homo sapiens (human) HOP62 cells assessed as cell growth promotion at 10 uM after 48 hr by SRB assay
SF-539 = experiment: Anticancer activity against Homo sapiens (human) SF539 cells after 48 hr by SRB assay; settings: SF-539, 48 h
NCI-H23 [1] = experiment: Anticancer activity against Homo sapiens (human) NCI-H23 cells assessed as cell growth promotion at 10 uM after 48 hr by SRB assay
IGROV-1 = experiment: Anticancer activity against Homo sapiens (human) IGROV1 cells after 48 hr by SRB assay; settings: IGROV-1, 48 h
NCI-H322M = experiment: Anticancer activity against Homo sapiens (human) NCI-H322M cells assessed as cell growth promotion at 10 uM after 48 hr by SRB assay
NCI/ADR-RES [2] = experiment: Anticancer activity against Homo sapiens (human) NCI/ADR-RES cells assessed as cell growth promotion at 10 uM after 48 hr by SRB assay
SK-MEL-28 = experiment: Anticancer activity against Homo sapiens (human) SK-MEL-28 cells assessed as cell growth promotion at 10 uM after 48 hr by SRB assay
COLO 205 [3] = experiment: Anticancer activity against Homo sapiens (human) COLO205 cells after 48 hr by SRB assay; settings: COLO 205, 48 h
Malme-3M = experiment: Anticancer activity against Homo sapiens (human) MALME-3M cells after 48 hr by SRB assay
NCI-H226 = experiment: Anticancer activity against Homo sapiens (human) NCI-H226 cells assessed as cell growth promotion at 10 uM after 48 hr by SRB assay
COLO 205 [4] = experiment: Anticancer activity against Homo sapiens (human) COLO205 cells assessed as cell growth promotion at 10 uM after 48 hr by SRB assay
786-0 [5] = experiment: Anticancer activity against Homo sapiens (human) 786-0 cells assessed as cell growth promotion at 10 uM after 48 hr by SRB assay
OVCAR-3 = experiment: Anticancer activity against Homo sapiens (human) OVCAR3 cells after 48 hr by SRB assay; settings: OVCAR-3, 48 h
786-0 [6] = experiment: Anticancer activity against Homo sapiens (human) 786-0 cells after 48 hr by SRB assay; settings: 786-0, 48 h
K562 = experiment: Anticancer activity against Homo sapiens (human) K562 cells after 48 hr by SRB assay; settings: K562, 48 h
MDA-MB-468 = experiment: Anticancer activity against Homo sapiens (human) MDA-MB-468 cells assessed as cell growth promotion at 10 uM after 48 hr by SRB assay
SK-MEL-2 = experiment: Anticancer activity against Homo sapiens (human) SK-MEL-2 cells after 48 hr by SRB assay; settings: SK-MEL-2, 48 h
UACC-257 [7] = experiment: Anticancer activity against Homo sapiens (human) UACC257 cells assessed as cell growth promotion at 10 uM after 48 hr by SRB assay
NCI/ADR-RES [8] = experiment: Anticancer activity against Homo sapiens (human) NCI/ADR-RES cells after 48 hr by SRB assay
KM12 = experiment: Anticancer activity against Homo sapiens (human) KM12 cells after 48 hr by SRB assay; settings: KM12, 48 h
T47D = experiment: Anticancer activity against Homo sapiens (human) T47D cells after 48 hr by SRB assay
NCI-H23 [9] = experiment: Anticancer activity against Homo sapiens (human) NCI-H23 cells after 48 hr by SRB assay; settings: NCI-H23, 48 h
M14 = experiment: Anticancer activity against Homo sapiens (human) M14 cells after 48 hr by SRB assay; settings: M14, 48 h
SNB-75 = experiment: Anticancer activity against Homo sapiens (human) SNB75 cells after 48 hr by SRB assay; settings: SNB-75, 48 h
UACC-257 [10] = experiment: Anticancer activity against Homo sapiens (human) UACC257 cells after 48 hr by SRB assay; settings: UACC-257, 48 h
HOP-92 = experiment: Anticancer activity against Homo sapiens (human) HOP92 cells assessed as cell growth promotion at 10 uM after 48 hr by SRB assay
MDA-MB-435 = experiment: Anticancer activity against Homo sapiens (human) MDA-MB-435 cells assessed as cell growth promotion at 10 uM after 48 hr by SRB assay
HCT-116 = experiment: Anticancer activity against Homo sapiens (human) HCT116 cells after 48 hr by SRB assay; settings: HCT-116, 48 h
BT-549 = experiment: Anticancer activity against Homo sapiens (human) BT549 cells assessed as cell growth promotion at 10 uM after 48 hr by SRB assay
SK-MEL-5 = experiment: Anticancer activity against Homo sapiens (human) SK-MEL-5 cells assessed as cell growth promotion at 10 uM after 48 hr by SRB assay
PC-3 = experiment: Anticancer activity against Homo sapiens (human) PC3 cells assessed as cell growth promotion at 10 uM after 48 hr by SRB assay
UO-31 = experiment: Anticancer activity against Homo sapiens (human) UO31 cells assessed as cell growth promotion at 10 uM after 48 hr by SRB assay
SNB-19 = experiment: Anticancer activity against Homo sapiens (human) SNB19 cells after 48 hr by SRB assay; settings: SNB-19, 48 h
OVCAR-4 = experiment: Anticancer activity against Homo sapiens (human) OVCAR4 cells assessed as cell growth promotion at 10 uM after 48 hr by SRB assay
RXF 393 = experiment: Anticancer activity against Homo sapiens (human) RXF393 cells assessed as cell growth promotion at 10 uM after 48 hr by SRB assay
[11] = read-out: LC50 (the source's name)

SMILES: COc1ccc(Nn2c(SCC(=O)Nc3nc(-c4ccc(Cl)cc4)cs3)nc(C)c2C)cc1
- Activity (HOP-62): 100.44%
- GI50 (SF-539): 4.15 µM
- LC50 (concentration killing 50% of cells) (SF-539): > 100 µM
- TGI (SF-539): > 100 µM
- Activity (NCI-H23 [1]): 31.88%
- GI50 (IGROV-1): 5.67 µM
- LC50 (concentration killing 50% of cells) (IGROV-1): > 100 µM
- TGI (IGROV-1): > 100 µM
- Activity (NCI-H322M): 111.9%
- Activity (NCI/ADR-RES [2]): 23.11%
- Activity (SK-MEL-28): 82.63%
- GI50 (COLO 205 [3]): 1.94 µM
- TGI (COLO 205 [3]): 3.55 µM
- CC50 (COLO 205 [3]; [11]): 6.51 µM
- GI50 (Malme-3M): 2.9 µM
- TGI (Malme-3M): > 100 µM
- CC50 (Malme-3M; [11]): > 100 µM
- Activity (NCI-H226): 60.46%
- Activity (COLO 205 [4]): 79.56%
- Activity (786-0 [5]): 59.54%
- GI50 (OVCAR-3): 3.13 µM
- LC50 (50% lethal concentration) (OVCAR-3): > 100 µM
- TGI (OVCAR-3): 24.2 µM
- GI50 (786-0 [6]): 3.46 µM
- LC50 (lethal concentration 50) (786-0 [6]): > 100 µM
- TGI (786-0 [6]): 18.2 µM
- GI50 (K562): 1.58 µM
- TGI (K562): > 100 µM
- CC50 (K562; [11]): > 100 µM
- Activity (MDA-MB-468): 26.17%
- GI50 (SK-MEL-2): 15.7 µM
- LC50 (concentration killing 50% of cells) (SK-MEL-2): > 100 µM
- TGI (SK-MEL-2): 66.8 µM
- Activity (UACC-257 [7]): 48.91%
- GI50 (NCI/ADR-RES [8]): 2.89 µM
- LC50 (NCI/ADR-RES [8]): > 100 µM
- TGI (NCI/ADR-RES [8]): > 100 µM
- GI50 (KM12): 1.84 µM
- LC50 (concentration killing 50% of cells) (KM12): > 100 µM
- TGI (KM12): 11.1 µM
- GI50 (T47D): 1.23 µM
- TGI (T47D): 8.04 µM
- CC50 (T47D; [11]): > 100 µM
- GI50 (NCI-H23 [9]): 1.53 µM
- TGI (NCI-H23 [9]): > 100 µM
- CC50 (NCI-H23 [9]; [11]): > 100 µM
- GI50 (M14): 3.02 µM
- LC50 (M14): > 100 µM
- TGI (M14): > 100 µM
- GI50 (SNB-75): 4.8 µM
- LC50 (SNB-75): > 100 µM
- TGI (SNB-75): > 100 µM
- GI50 (UACC-257 [10]): 2.97 µM
- LC50 (UACC-257 [10]): > 100 µM
- TGI (UACC-257 [10]): 41.1 µM
- Activity (HOP-92): 38.65%
- Activity (MDA-MB-435): 50.36%
- GI50 (HCT-116): 2.12 µM
- LC50 (HCT-116): > 100 µM
- TGI (HCT-116): 14.1 µM
- Activity (BT-549): 53.32%
- Activity (SK-MEL-5): -21.47%
- Activity (PC-3): 35.69%
- Activity (UO-31): 39.41%
- GI50 (SNB-19): 6.2 µM
- LC50 (SNB-19): > 100 µM
- TGI (SNB-19): > 100 µM
- Activity (OVCAR-4): 30.81%

SMILES: Cc1nc(SCC(=O)Nc2nccs2)n(Nc2ccc(Cl)cc2)c1C
- Activity (HOP-62): 88.3%
- Activity (NCI-H23 [1]): 109.41%
- Activity (NCI-H322M): 131.8%
- Activity (NCI/ADR-RES [2]): 100.18%
- Activity (SK-MEL-28): 111.02%
- Activity (NCI-H226): 93.51%
- Activity (COLO 205 [4]): 121.19%
- Activity (786-0 [5]): 111.66%
- Activity (RXF 393): 91.41%
- Activity (MDA-MB-468): 105.66%
- Activity (UACC-257 [7]): 107.66%
- Activity (HOP-92): 96.74%
- Activity (MDA-MB-435): 110.71%
- Activity (BT-549): 111.12%
- Activity (SK-MEL-5): 84.95%
- Activity (PC-3): 103.63%
- Activity (UO-31): 86.43%
- Activity (OVCAR-4): 102.19%

SMILES: COc1ccc(Nn2c(SCC(=O)Nc3nccs3)nc(C)c2C)cc1
- Activity (HOP-62): 106.4%
- Activity (NCI-H23 [1]): 106.56%
- Activity (NCI-H322M): 110.58%
- Activity (NCI/ADR-RES [2]): 92.35%
- Activity (SK-MEL-28): 113.96%
- Activity (NCI-H226): 105.15%
- Activity (COLO 205 [4]): 107.27%
- Activity (786-0 [5]): 100.29%
- Activity (RXF 393): 126.87%
- Activity (MDA-MB-468): 94.85%
- Activity (UACC-257 [7]): 108.29%
- Activity (HOP-92): 117.01%
- Activity (MDA-MB-435): 97.68%
- Activity (BT-549): 105.55%
- Activity (SK-MEL-5): 102.75%
- Activity (PC-3): 103.43%
- Activity (UO-31): 86.71%
- Activity (OVCAR-4): 110.54%
